Laboratory results reported in patent US7125903B1 (Aventis Pharmaceuticals Inc., priority 1999, dated 2006).
Structures can show the parent of a compound that is named as a salt. Where two headings read alike, the source gives them in different places. Blank lines part the entries; values can stand above or below the compound they belong to.

Tests used:
[1] = molecular target: T1, human D4 receptor (D4.2 sub-type) (Homo sapiens, UniProt P21917, DEL265-296); assay: D4 receptor binding assay (3H-spiperone displacement); conditions: for Ki: 3H-spiperone 0.25 nM, membranes of HEK 298 cells with human D4.2, Cheng-Prusoff from IC50, read-out: D4 RBA Ki; for inhibition at 1 µM: 1 μM test compound, inhibition of 3H-spiperone binding, read-out: D4 RBA % Inhib. @ 1 μM
T1 construct: expressed in transfected cells
T1 sequence (P21917 with tags, fused parts or gaps DEL265-296): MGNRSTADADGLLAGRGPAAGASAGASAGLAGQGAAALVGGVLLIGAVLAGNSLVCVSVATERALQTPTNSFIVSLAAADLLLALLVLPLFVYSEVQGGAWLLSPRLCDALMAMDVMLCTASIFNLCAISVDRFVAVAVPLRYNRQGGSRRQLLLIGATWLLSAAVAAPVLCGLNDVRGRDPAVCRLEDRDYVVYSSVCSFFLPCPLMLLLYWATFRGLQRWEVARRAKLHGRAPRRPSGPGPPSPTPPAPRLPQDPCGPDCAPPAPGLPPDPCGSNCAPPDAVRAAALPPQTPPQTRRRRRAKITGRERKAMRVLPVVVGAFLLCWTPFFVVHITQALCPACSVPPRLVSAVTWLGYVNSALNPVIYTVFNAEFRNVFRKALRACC
Method: D4 receptor-binding affinities of the compounds were evaluated according to their ability to reduce binding of ^3H-spiperone as compared to the reference compound clozapine. The potency of the test compound to reduce ^3H-spiperone binding directly correlated to its binding affinity for the receptor.
[…] (human embryonic kidney) cells stably transfected with human D4 receptor (D4.2 sub-type) were grown in NUNC cell factories for 5 days (75% confluency) without a media change and removed with versene (approximately 19 mg of cells per cell factory tray). The cells were then centrifuged in a Sorval centrifuge for 10 min, 5000 rpm (GS3 rotor) and the pellets quickly frozen in liquid nitrogen and stored at −80° C. until used in binding assay. When used in the assay, cells were thawed on ice for 20 min and then 10 mL of incubation buffer (50 mM Tris, 1 mM EDTA, 4 mM MgCl2, 5 mM KCl, 1.5 mM CaCl2, 120 mM NaCl, pH 7.4) was added. The cells were then vortexed to resuspend pellet and homogenized with a Kinematica, CH-6010 Kriens-LU, homogenizer for 15 seconds at setting 7. Concentration of receptor protein was determined using the Pierce BCA assay.
The incubation was started by the addition of 100 μl (50 μg protein) membrane homogenate to a solution of 300 μl incubation buffer and 100 μl (0.25 nM final conc.) ^3H-spiperone (90 Ci/mmol, Amersham, diluted in borosilicate glass vial) in 96-well polypropylene plates (1 mL per well). The plates were vortexed and incubated at room temperature for 90 minutes. The binding reaction was stopped by filtering using a Packard Harvester. The samples were filtered under vacuum over glass fibre filter plates (Whatman GF/B) presoaked for 2 hours in 0.3% polyethylenimine (PEI) in 50 mM Tris buffer (pH 7.4). The filters were then washed 6 times with 7 mL ice cold 50 mM Tris buffer (pH 7.4). The filter plates were dried overnight and 35 μl of Microscint-O (Packard) was added. The plates were sealed and counted in the Packard Top Count (3 minutes per well).
The incubation was started by the addition of 100 μl (50 μg protein) membrane homogenate to a solution of 200 μl incubation buffer, 100 μl ^3H-spiperone (90 Ci/mmol, Amersham, diluted in borosilicate glass vial to 0.25 nM final conc.) and 100 μl (30 μM final conc.) of fresh dopamine (Research Biochemicals Inc., light protected and dissolved in incubation buffer) in 96-well polypropylene plates (1 mL per well). The plates were vortexed and incubated at room temperature for 90 minutes at which time the binding reaction was stopped by filtering. The filters were washed and counted using the same procedure as in the total binding assay described above to give the nonspecific binding value (NSB).
The incubation was started by the addition, in 96-well polypropylene plates (1 mL per well), of 100 μl (50 μg protein) membrane homogenate to a solution of 200 μl incubation buffer, 100 μl (0.25 nM final conc.) ^3H-spiperone (90 Ci/mmol, Amersham, diluted in borosilicate glass vial) and 100 μl of test compound that was prepared from 1 mM stock dissolved in DMSO and stored at −20° C. in polypropylene cryogenic storage vials until dilution in incubation buffer in 96-well polypropylene plates. The plates were vortexed and incubated at room temperature for 90 minutes at which time the binding reaction was stopped by filtering. The filters were washed and counted using the same procedure as in the total binding assay described above to give the displacement binding value (BD).
The test compounds were initially assayed at 1 and 0.1 μM and then at a range of concentrations chosen such that the middle dose would cause about 50% inhibition of ^3H-spiperone binding. Specific binding in the absence of test compound (B0) was the difference of total binding (BT) minus non-specific binding (NSB) and similarly specific binding (in the presence of test compound) (B) was the difference of displacement binding (BD) minus non-specific binding (NSB). […]

MK801 Stereotypy = assay: MK-801 Stereotypy in Mice; type: in vivo; conditions: Mus musculus, mice, MK-801 0.2 mg/kg, read-out: Antagonism of MK801 Stereotypy % Inhib. @ 20 mg/kg (route)
Method: Mk-801 dose-dependently induces characteristic stereotypy marked by locomotion and falling behavior. This MK-801 induced behavior can be antagonized by novel neuroleptic agents. This assay can also assess time course effects following drug administration.
CD-1 or C57 male mice are individually placed in activity boxes (8 mice/drug) and allowed to acclimate for 60 minutes. The mice are then administered test compounds either i.p., s.c., or p.o., at 15, 30, or 60 minutes prior to MK-801 (0.2 mg/kg) administration. Mice are observed for the presence of locomotion and falling behaviors 15 minutes following MK-801. For the duration of action studies the test compounds are administered i.p., s.c., or p.o., at 30, 60, 120, 180, and 240 minutes prior to MK-801 administration.

Ki [1]: 6 nM
SMILES: O[C@@H](COc1cccc(-c2noc3ccsc23)c1)CN1CCN(c2nsc3ccccc23)CC1 [Example 76]

inhibition at 1 µM [1]: 94%
SMILES: O[C@H](CNCC1CCCCC1)COc1cccc(-c2noc3ccsc23)c1 [Example 92]

Ki [1]: 16 nM
SMILES: O[C@H](CNC1CCc2ccccc21)COc1cccc(-c2noc3ccsc23)c1 (stereo partly drawn) [Example 93]

inhibition at 1 µM [1]: 85%
SMILES: O[C@@H](COc1cccc(-c2noc3ccsc23)c1)CN1CCCCC1 [Example 98]

inhibition at 1 µM [1]: 95%
SMILES: Cn1nc(-c2cccc(OC[C@H](O)CN3CCc4ccccc4C3)c2)c2sccc21 [Example 99]

inhibition at 1 µM [1]: 90%
SMILES: Cn1nc(-c2cccc(OC[C@H](O)CN3CCN(c4ccccc4)CC3)c2)c2sccc21 [Example 100]

inhibition at 1 µM [1]: 89%
SMILES: Cn1nc(-c2cccc(OC[C@H](O)CN3CCN(c4ncccn4)CC3)c2)c2sccc21 [Example 101]

inhibition at 1 µM [1]: 97%
SMILES: Cn1nc(-c2cccc(OC[C@H](O)CN3CCC(C(=O)c4ccc(F)cc4)CC3)c2)c2sccc21 [Example 102]

inhibition at 1 µM [1]: 91%
SMILES: Cn1nc(-c2cccc(OC[C@H](O)CN3CCC(n4c(=O)[nH]c5ccccc54)CC3)c2)c2sccc21 [Example 103]

Continued, compound first:

SMILES: O[C@@H](COc1cccc(-c2noc3ccsc23)c1)CN1CCN(Cc2ccc3c(c2)OCO3)CC1 (as salt: hydrochloride) [Example 51, (2R)-1-(4-benzo[1,3]dioxol-5-ylmethyl-piperazin-1-yl)-3-(3-thieno[2,3-d]isoxazol-3-yl-phenoxy)propan-2-ol]
melting point: 225 to 227 °C

SMILES: C[C@](O)(CNCc1ccccc1)COc1cccc(-c2noc3ccsc23)c1 [Compound 3, (2S)-(+)-1-benzylamino-2-methyl-3-(3-thieno[2,3-d]isoxazol-3-yl-phenoxy)propan-2-ol maleate]
Ki [1]: 3.3 nM
inhibition in vivo at 20 mg/kg (MK801 Stereotypy; 20 mg/kg ip): 37.5%

SMILES: C[C@@](O)(CNCc1ccccc1)COc1cccc(-c2noc3ccsc23)c1 [Compound 4, (2R)-(−)-1-benzylamino-2-methyl-3-(3-thieno[2,3-d]isoxazol-3-yl-phenoxy)propan-2-ol maleate]
Ki [1]: 37.7 nM
inhibition in vivo at 20 mg/kg (MK801 Stereotypy; 20 mg/kg ip): 12.5%

SMILES: O[C@H](CNCc1cccs1)COc1cccc(-c2noc3ccsc23)c1 [Compound 6, (2R)-1-(3-thieno[2,3-d]isoxazol-3-yl-phenoxy)-3-[(thiophen-2-ylmethyl)amino]propan-2-ol L-tartrate]
Ki [1]: 12.6 nM
inhibition in vivo at 20 mg/kg (MK801 Stereotypy; 20 mg/kg ip): 25%

SMILES: O[C@H](CNCc1ccsc1)COc1cccc(-c2noc3ccsc23)c1 [Example 9]
Ki [1]: 7.6 nM
inhibition in vivo at 20 mg/kg (MK801 Stereotypy; 20 mg/kg ip): 12%

SMILES: O[C@@H](COc1cccc(-c2noc3ccsc23)c1)CN1CCN(c2n[nH]c3cc(F)ccc23)CC1 [Example 11, (2R)-1-[4-(6-fluoro-1H-indazol-3-yl)-piperazin-1-yl]-3-(3-thieno[2,3-d]isoxazol-3-yl-phenoxy)-propan-2-ol]
melting point: 97 to 99 °C

SMILES: COc1ccc2[nH]nc(N3CCN(C[C@@H](O)COc4cccc(-c5noc6ccsc56)c4)CC3)c2c1 [Example 12, (2R)-1-[4-(5-methoxy-1H-indazol-3-yl)-piperazin-1-yl]-3-(3-thieno[2,3-d]isoxazol-3-yl-phenoxy)-propan-2-ol]
melting point: 84 to 86 °C

SMILES: C[C@@](O)(CNCc1ccc(F)cc1)COc1cccc(-c2noc3ccsc23)c1 [Example 15]
Ki [1]: 11 nM
inhibition in vivo at 20 mg/kg (MK801 Stereotypy; 20 mg/kg sc): 50%

SMILES: OC(CNC[C@@H](O)COc1cccc(-c2noc3ccsc23)c1)c1ccccc1 (stereo partly drawn) [Example 27]
Ki [1]: 131 nM
inhibition in vivo at 20 mg/kg (MK801 Stereotypy; 20 mg/kg sc): 75%

SMILES: C[C@@](O)(CNCc1cccs1)COc1cccc(-c2noc3ccsc23)c1.O=C(O)/C=C\C(=O)O [Example 27]
melting point: 120 to 121 °C

SMILES: O[C@@H](COc1cccc(-c2noc3ccsc23)c1)CN1CCN(c2ccccc2F)CC1 [Example 44, (2R)-1-[4-(2-fluorophenyl)piperazin-1-yl]-3-(3-thieno[2,3-d]isoxazol-3-yl-phenoxy)-propan-2-ol]
melting point: 96 to 99 °C

SMILES: O[C@@H](COc1cccc(-c2noc3ccsc23)c1)CN1CCN(c2ccccc2Cl)CC1 [Example 46, (2R)-1-[4-(2-chlorophenyl)piperazin-1-yl]-3-(3-thieno[2,3-d]isoxazol-3-yl-phenoxy)-propan-2-ol]
melting point: 83 to 86 °C

SMILES: O[C@@H](COc1cccc(-c2noc3ccsc23)c1)CN1CCN(c2cccc(Cl)c2)CC1 [Example 47, (2R)-1-[4-(3-chlorophenyl)piperazin-1-yl]-3-(3-thieno[2,3-d]isoxazol-3-yl-phenoxy)-propan-2-ol]
melting point: 118 to 120 °C

SMILES: COc1ccc(N2CCN(C[C@@H](O)COc3cccc(-c4noc5ccsc45)c3)CC2)cc1 [Example 48, (2R)-1-[4-(4-methoxyphenyl)piperazin-1-yl]-3-(3-thieno[2,3-d]isoxazol-3-yl-phenoxy)-propan-2-ol]
melting point: 110 to 113 °C

SMILES: O[C@@H](COc1cccc(-c2noc3ccsc23)c1)CN1CCN(c2ccccc2)CC1 [Example 49, (2R)-1-(4-phenylpiperazin-1-yl)-3-(3-thieno[2,3-d]isoxazol-3-yl-phenoxy)propan-2-ol]
melting point: 127 to 129 °C

SMILES: N#Cc1ccccc1N1CCN(C[C@@H](O)COc2cccc(-c3noc4ccsc34)c2)CC1 [Example 50, 2-{4-[(R)-2-hydroxy-3-(3-thieno[2,3-d]isoxazol-3-yl-phenoxy)-propyl]piperazin-1-yl}benzonitrile]
melting point: 87 to 89 °C

SMILES: O[C@@H](COc1cccc(-c2noc3ccsc23)c1)CN1CCN(c2ccccc2C(F)(F)F)CC1 [Example 52, (2R)-1-(3-thieno[2,3-d]isoxazol-3-yl-phenoxy)-3-[4-(2-trifluoromethylphenyl)-piperazin-1-yl]propan-2-ol]
melting point: 77 to 79 °C

SMILES: O[C@@H](COc1cccc(-c2noc3ccsc23)c1)CN1CCC(O)(c2ccc(Cl)cc2)CC1 [Example 90]
inhibition at 1 µM [1]: 59%
